Publication PMC4275256 (PLoS ONE, 2014)

Assays:
Conditions in all cases: read-out: Km[HCO3 ^-]; pH 8, 50 mM NaCl, 24 °C; labelled compound; corrected for respiratory Ci
SbtA7942 = target: T1, SbtA7942 (Synechococcus elongatus, UniProt Q31N64)
T1 construct: gene Synpcc7942_1475

SbtA5701 (SbtA1) = system: T2, SbtA5701 (SbtA1)
T2 construct: gene sbtA

SbtA6803 = target: T3, SbtA6803 (Synechocystis sp. PCC 6803, UniProt P73953)
T3 construct: gene slr1512

SbtA6307 (SbtA1) = system: T4, SbtA6307 (SbtA1)
T4 construct: gene sbtA

Measured: Km

T1 sequence (Q31N64 1-373): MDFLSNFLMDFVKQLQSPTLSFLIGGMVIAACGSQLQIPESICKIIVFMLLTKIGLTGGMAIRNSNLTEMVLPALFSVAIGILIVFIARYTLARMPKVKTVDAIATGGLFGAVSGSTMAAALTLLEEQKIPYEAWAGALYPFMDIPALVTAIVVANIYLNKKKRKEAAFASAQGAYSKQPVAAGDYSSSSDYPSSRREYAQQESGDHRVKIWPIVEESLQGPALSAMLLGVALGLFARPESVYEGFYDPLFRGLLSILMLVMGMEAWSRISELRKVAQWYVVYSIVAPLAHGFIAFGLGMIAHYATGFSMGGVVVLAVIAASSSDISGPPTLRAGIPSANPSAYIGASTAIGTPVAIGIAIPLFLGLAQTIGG
T3 sequence (P73953 1-374): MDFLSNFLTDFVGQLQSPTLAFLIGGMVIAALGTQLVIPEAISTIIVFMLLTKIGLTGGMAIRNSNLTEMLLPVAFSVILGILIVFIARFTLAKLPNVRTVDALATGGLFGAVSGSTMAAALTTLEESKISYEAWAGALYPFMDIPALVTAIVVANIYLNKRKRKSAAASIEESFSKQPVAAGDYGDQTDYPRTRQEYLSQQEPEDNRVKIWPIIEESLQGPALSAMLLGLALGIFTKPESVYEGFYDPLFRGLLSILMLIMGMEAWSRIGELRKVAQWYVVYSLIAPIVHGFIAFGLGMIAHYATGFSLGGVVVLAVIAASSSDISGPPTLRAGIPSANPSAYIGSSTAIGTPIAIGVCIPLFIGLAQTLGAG

O=C(O)O [HCO3 ^-]
< 100 µM: SbtA7942 | SbtA5701 (SbtA1) | SbtA6803 | SbtA6307 (SbtA1)
